From the supplement of paper PMC4862054

What follows are compounds tested on DU-4475 (assay: normalised response (% of control), CellTiter-Glo; higher = more viable cells (100 = DMSO, 0 = benzethonium chloride kill control)). Conditions: incubation time: 72 h.
Summary of the method: (§1)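 Normalised signals at single concentrations make up the values. They come from breast cancer cell lines seeded (20 µl suspension) into 384-well plates with compound at 5 concentrations in 10-fold steps over a compound-specific 10,000-fold range, incubated 72 h, and read for CellTox Green fluorescence then CellTiter-Glo luminescence. Each plate was normalised to 0.1 % DMSO (100) and a positive kill control (0).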

Q: How did the normalised response turn out when CC(=O)OC[C@H]1O[C@@H]([S-])[C@H](OC(C)=O)[C@@H](OC(C)=O)[C@@H]1OC(C)=O.CCP(CC)CC.[Au+] [Auranofin] (250 nM) was run?
A: 102%

Q: How did the normalised response turn out when O=S(=O)(c1cccc2cnccc12)N1CCCNCC1 [Fasudil] (5000 nM) was run?
A: 96.8%

Q: Which normalised response does the source give for Cc1cccc(-c2nn3c(c2-c2ccnc4ccc(C(N)=O)cc24)CCC3)n1 [Galunisertib] (100 nM) here?
A: 104%

Q: How did the normalised response turn out when O=C(NC[C@H](O)CO)c1ccncc1Nc1ccc(I)cc1F [Pimasertib] (1000 nM) was run?
A: 0.43%

Q: Which normalised response does the source give for Cn1cc(CNCC2CCN(c3ncc(C(=O)NO)cn3)CC2)c2ccccc21 [Quisinostat] (100 nM) here?
A: 23.2%

The compounds below were run on MDA-MB-468 in the same assay as above. Conditions: incubation time: 72 h.
Summary of the method: as §1

Q: With CC/C(=C(\c1ccc(O)cc1)c1ccc(OCCN(C)C)cc1)c1ccccc1 [4-hydroxytamoxifen] (1000 nM) as the compound, how does the normalised response read?
A: 91.6%

Q: O=C(Nc1c[nH]nc1-c1nc2ccc(CN3CCOCC3)cc2[nH]1)NC1CC1 [AT9283] (100 nM) was tested. Which normalised response did it give?
A: 29.7%

Q: How did the normalised response turn out when CC(=O)OC[C@H]1O[C@@H]([S-])[C@H](OC(C)=O)[C@@H](OC(C)=O)[C@@H]1OC(C)=O.CCP(CC)CC.[Au+] [Auranofin] (250 nM) was run?
A: 18.5%

Q: O=S(=O)(c1cccc2cnccc12)N1CCCNCC1 [Fasudil] (5000 nM) was tested. Which normalised response did it give?
A: 105%

Q: With Cc1cccc(-c2nn3c(c2-c2ccnc4ccc(C(N)=O)cc24)CCC3)n1 [Galunisertib] (100 nM) as the compound, how does the normalised response read?
A: 107%

Q: Which normalised response does the source give for O=C(NC[C@H](O)CO)c1ccncc1Nc1ccc(I)cc1F [Pimasertib] (1000 nM) here?
A: 87.4%

Q: Which normalised response does the source give for Cn1cc(CNCC2CCN(c3ncc(C(=O)NO)cn3)CC2)c2ccccc21 [Quisinostat] (100 nM) here?
A: 34.5%

These compounds were tested on CAL-148 in the same assay as above. Conditions: incubation time: 72 h.
Summary of the method: as §1

Q: CC/C(=C(\c1ccc(O)cc1)c1ccc(OCCN(C)C)cc1)c1ccccc1 [4-hydroxytamoxifen] (1000 nM) was tested. Which normalised response did it give?
A: 102%

Q: Which normalised response does the source give for O=C(Nc1c[nH]nc1-c1nc2ccc(CN3CCOCC3)cc2[nH]1)NC1CC1 [AT9283] (100 nM) here?
A: 46.6%

Q: For CC(=O)OC[C@H]1O[C@@H]([S-])[C@H](OC(C)=O)[C@@H](OC(C)=O)[C@@H]1OC(C)=O.CCP(CC)CC.[Au+] [Auranofin] (250 nM), which normalised response is on record?
A: 101%

Q: With O=S(=O)(c1cccc2cnccc12)N1CCCNCC1 [Fasudil] (5000 nM) as the compound, how does the normalised response read?
A: 97.1%

Q: How did the normalised response turn out when Cc1cccc(-c2nn3c(c2-c2ccnc4ccc(C(N)=O)cc24)CCC3)n1 [Galunisertib] (100 nM) was run?
A: 101%

Q: How did the normalised response turn out when O=C(NC[C@H](O)CO)c1ccncc1Nc1ccc(I)cc1F [Pimasertib] (1000 nM) was run?
A: 83.5%

Q: Which normalised response does the source give for Cn1cc(CNCC2CCN(c3ncc(C(=O)NO)cn3)CC2)c2ccccc21 [Quisinostat] (100 nM) here?
A: 8.89%

Each compound was assayed on HCC1937 in the same assay as above. Conditions: incubation time: 72 h.
Summary of the method: as §1

Q: How did the normalised response turn out when CC/C(=C(\c1ccc(O)cc1)c1ccc(OCCN(C)C)cc1)c1ccccc1 [4-hydroxytamoxifen] (1000 nM) was run?
A: 93.9%

Q: For O=C(Nc1c[nH]nc1-c1nc2ccc(CN3CCOCC3)cc2[nH]1)NC1CC1 [AT9283] (100 nM), which normalised response is on record?
A: 93.8%

Q: CC(=O)OC[C@H]1O[C@@H]([S-])[C@H](OC(C)=O)[C@@H](OC(C)=O)[C@@H]1OC(C)=O.CCP(CC)CC.[Au+] [Auranofin] (250 nM) was tested. Which normalised response did it give?
A: 87.4%

Q: With O=S(=O)(c1cccc2cnccc12)N1CCCNCC1 [Fasudil] (5000 nM) as the compound, how does the normalised response read?
A: 105%

Q: Cc1cccc(-c2nn3c(c2-c2ccnc4ccc(C(N)=O)cc24)CCC3)n1 [Galunisertib] (100 nM) was tested. Which normalised response did it give?
A: 104%

Q: Which normalised response does the source give for O=C(NC[C@H](O)CO)c1ccncc1Nc1ccc(I)cc1F [Pimasertib] (1000 nM) here?
A: 84.3%

Q: With Cn1cc(CNCC2CCN(c3ncc(C(=O)NO)cn3)CC2)c2ccccc21 [Quisinostat] (100 nM) as the compound, how does the normalised response read?
A: 64.7%

What follows are compounds tested on SK-BR-3 in the same assay as above. Conditions: incubation time: 72 h.
Summary of the method: as §1

Q: With CC/C(=C(\c1ccc(O)cc1)c1ccc(OCCN(C)C)cc1)c1ccccc1 [4-hydroxytamoxifen] (1000 nM) as the compound, how does the normalised response read?
A: 99.2%

Q: O=C(Nc1c[nH]nc1-c1nc2ccc(CN3CCOCC3)cc2[nH]1)NC1CC1 [AT9283] (100 nM) was tested. Which normalised response did it give?
A: 86.4%

Q: Which normalised response does the source give for CC(=O)OC[C@H]1O[C@@H]([S-])[C@H](OC(C)=O)[C@@H](OC(C)=O)[C@@H]1OC(C)=O.CCP(CC)CC.[Au+] [Auranofin] (250 nM) here?
A: 99.8%

Q: How did the normalised response turn out when O=S(=O)(c1cccc2cnccc12)N1CCCNCC1 [Fasudil] (5000 nM) was run?
A: 107%

Q: Which normalised response does the source give for Cc1cccc(-c2nn3c(c2-c2ccnc4ccc(C(N)=O)cc24)CCC3)n1 [Galunisertib] (100 nM) here?
A: 105%

Q: Which normalised response does the source give for O=C(NC[C@H](O)CO)c1ccncc1Nc1ccc(I)cc1F [Pimasertib] (1000 nM) here?
A: 86.1%

Q: Which normalised response does the source give for Cn1cc(CNCC2CCN(c3ncc(C(=O)NO)cn3)CC2)c2ccccc21 [Quisinostat] (100 nM) here?
A: 14.9%
